Columns and labels:
Format in all cases: in vivo
[1] = tested on: Tobacco Budworm [Heliothis virescens (Fabricius)] eggs; assay: Tobacco budworm eggs (TBW-E); settings: percent in solution; 2-day old eggs
In short: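 LC50 values (percent test compound in the dip solution) were calculated from dosage-mortality curves. Egg patches, 2 days old, were dipped in acetone solutions at concentrations from 0.1% downward and held at 78° F on rearing medium until control larvae hatched and fed.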

[2] = tested on: Black Bean Aphid [Aphis fabae (Scop.)]; assay: Black bean aphid spray test on nasturtium (BBA), 48 hours; settings: percent of test compound in sprayed solution
In short: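 LC50, given as percent test compound in the sprayed liquid, was calculated from dosage-mortality curves using concentrations from 0.05% downward. Sprays in 50:50 acetone-water went to runoff on ~5 cm nasturtiums carrying 25-50 aphids of mixed ages, one day after infestation. Deaths were counted 48 h later under greenhouse conditions.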

[3] = tested on: Cabbage Looper [Trichoplusia ni (Hubner)]; assay: Cabbage looper leaf dip (CL), 3-5 days; settings: percent in solution, second-instar larvae
In short: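 Leaf dip, squash cotyledons, 50-50 acetone-water, top dose 0.1% and lower. 5 second-instar larvae/dish, moist filter paper, high-humidity chamber. Mortality at 3-5 d; LC50 (% in solution) from dosage-mortality curves.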

[4] = tested on: Housefly [Musca domestica]; assay: Housefly contact mortality in dishes (HF), 48 hours; settings: μg of test compound per 25 female flies
In short: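 Dose range started at 100 μg per 25 female flies and went downward. Insects (1-2 days old) contacted a dried acetone/peanut-oil deposit in dishes; LC50 values come from dosage-mortality curves at 48 h.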

[5] = tested on: Aster Leafhopper [Macrosteles fascifrens (Stal)]; assay: Aster leafhopper on dipped oat seedlings (LH), 48 hours; settings: percent in solution, adults/nymphs
Description: The compounds in Tables 1 and 2 above were tested for insecticidal activity using the following testing procedures. LC50 values, based on the results of these tests and calculated according to dosage-mortality curves, are expressed in Table 3.
Aster Leafhopper [Macrosteles fascifrens (Stal)]
Oat seedlings (Avena sp) were grown in a commercial potting soil in cups. When the plants were approximately 10 cm tall they were thinned to three plants per cup and dipped for 2-3 seconds in 50-50 acetone-water solutions of the test compounds. When the plants had dried, a clear plastic tube was placed over them and the bottom end pressed into the cup. Ten aster leafhopper adults/nymphs were then placed in each tube and the tops of the tubes covered with white organdy cloth. Mortality counts were made after 48 hours. Test concentrations ranged from 0.05% down to that at which 50% mortality occurred. The LC50 values are expressed below in Table 3 under the heading "LH" in terms of the percent of the test compound in the solution.

[6] = tested on: Maize weevil [Sitophilus zeamais (Motschulsky)]; assay: Maize weevil on dipped corn seeds (MW), 48 hours; settings: percent in solution, adult weevils
In short: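 LC50, given as percent of compound in dipping solution, comes from dosage-mortality curves over concentrations descending from 0.01%. Four corn seeds soaked 2-3 s in 50:50 acetone:water solution were dried and held with 10 adult weevils, about 25° C, mortality read after 48 h.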

Row | Structure (SMILES) | LC50 TBW E (eggs) [1] [%] | LC50 BBA [2] [%] | LC50 CL [3] [%] | LC50 HF [4] [µg] | LC50 LH [5] [%] | LC50 MW [6] [%]
1 | CC(C)CC(=Nc1cc(Cl)cc(Cl)c1)OCc1cccc(Oc2ccccc2)c1 [Compound 10] | > 0.1 | 0.05 | 0.01 | > 100 | > 0.05 | –
2 | CC(C)C(=Nc1cc(Cl)cc(Cl)c1)OCc1cccc(Oc2ccccc2)c1 [Compound 16] | 0.04 | 0.0004 | 0.004 | 20 | 0.0005 | –
3 | CC(C)C(=Nc1cc(Cl)c(Cl)c(Cl)c1)OCc1cccc(Oc2ccccc2)c1 [Compound 20] | < 0.1 | 0.0006 | 0.0025 | 64 | 0.003 | –
4 | Fc1ccc(N=C(OCc2cccc(Oc3ccccc3)c2)C(Cl)=C(Cl)Cl)cc1 [Compound 49] | > 0.05 | 0.05 | 0.007 | > 100 | > 0.05 | –
5 | CC(C)C(=Nc1c(F)c(F)cc(F)c1F)OCc1cccc(Oc2ccccc2)c1 [Compound 57] | 0.1 | 0.03 | 0.004 | > 100 | 0.0005 | –
6 | COc1ccc(OC)c(N=C(OCc2cccc(Oc3ccccc3)c2)C(C)C)c1 [Compound 69] | > 0.1 | > 0.05 | 0.09 | > 100 | > 0.05 | –
7 | CC(C)C(=Nc1ccc(OC(F)(F)F)cc1)OCc1cccc(Oc2ccccc2)c1 [Compound 70] | 0.01 | < 0.05 | < 0.1 | < 100 | > 0.05 | –
8 | CC(C)C(=Nc1ccc(C(F)(F)F)c(Cl)c1)OCc1cccc(Oc2ccccc2)c1 [Compound 83] | > 0.1 | 0.05 | 0.007 | > 100 | > 0.05 | –
9 | Cc1ccc(N=C(OCc2cccc(Oc3ccccc3)c2)C(C)C)cc1Cl [Compound 90] | 0.016 | 0.0003 | > 0.1 | > 100 | 0.001 | –
10 | COc1c(Cl)cc(N=C(OCc2cccc(Oc3ccccc3)c2)C(C)C)cc1Cl [Compound 91] | > 0.01 | 0.001 | 0.002 | 37 | 0.003 | –
11 | CC(C)C(=Nc1c(Cl)cc([N+](=O)[O-])cc1Cl)OCc1cccc(Oc2ccccc2)c1 [Compound 92] | > 0.1 | > 0.05 | 0.015 | > 100 | > 0.05 | –
12 | Clc1ccc(N=C(OCc2cccc(Oc3ccccc3)c2)C(Cl)Cl)c2ccccc12 [Compound 98] | 0.1 | > 0.05 | 0.016 | > 100 | > 0.05 | –
13 | Cc1c(Cl)cc(N=C(OCc2cccc(Oc3ccccc3)c2)C(C)C)cc1Cl [Compound 101] | > 0.1 | 0.002 | 0.0045 | 81 | 0.0008 | –
14 | CCCC(=Nc1ccc2c(c1)OCO2)OCc1cccc(Oc2ccccc2)c1 [Compound 188] | > 0.1 | – | 0.002 | 12 | > 0.05 | –
15 | CC(C)C(=Nc1cc(F)ccc1Cl)OCc1ccc(F)c(Oc2ccc(F)cc2)c1 [Compound 303] | > 0.1 | – | 0.0015 | > 100 | 0.0005 | –
16 | CC(C)C(=Nc1ccc2c(c1)OCO2)OCc1cccc(Oc2ccc(F)cc2)n1 [Compound 465] | 0.027 | – | 0.0017 | 8 | 0.0025 | –
17 | COCc1c(F)c(F)c(COC(=Nc2ccc(F)c(Cl)c2)C(C)C)c(F)c1F [Compound 505] | 0.09 | 0.002 | 0.0024 | 14 | – | > 0.01

Row | Structure (SMILES) | LC50 TBW E (eggs) [1] [%] | LC50 BBA [2] [%] | LC50 CL [3] [%] | LC50 HF [4] [µg] | LC50 LH [5] [%] | LC50 MW [6] [%]
18 | CC(C)C(=Nc1cccc(C(F)(F)F)c1)OCc1cc(Oc2ccccc2)ccn1 [Compound 506] | > 0.1 | 0.03 | 0.005 | 40 | – | > 0.01
19 | CC(C)C(=Nc1cccc(C(F)(F)F)c1)OCc1ccnc(Oc2ccccc2)c1 [Compound 507] | > 0.1 | 0.05 | 0.002 | 93 | – | > 0.01
20 | CC(C)C(=Nc1cccc(C(F)(F)F)c1)OCc1cc(Oc2ccc(Cl)cc2)ccn1 [Compound 509] | > 0.1 | > 0.05 | 0.0075 | 79 | – | > 0.01
21 | CC(C)C(=Nc1ccc(F)c(Cl)c1)OCc1ccnc(Oc2ccccc2)c1 [Compound 510] | > 0.1 | 0.05 | 0.017 | 54 | – | > 0.01
22 | CC(C)C(=Nc1ccc(F)c(Cl)c1)OCc1ccnc(Oc2ccc(F)cc2)c1 [Compound 511] | > 0.1 | 0.05 | 0.0012 | 89 | – | > 0.01
23 | CC(C)C(=Nc1ccc(OC(F)(F)F)cc1)OCc1cccc(Oc2ccccc2)n1 [Compound 550] | > 0.1 | 0.002 | 0.00034 | < 100 | – | > 0.01
24 | CC(C)C(=Nc1ccc(Br)c(F)c1)OCc1cccc(Oc2ccc(Cl)cc2)n1 [Compound 551] | 0.035 | 0.0006 | 0.00075 | < 100 | – | > 0.01
25 | CCc1ccc(N=C(OCc2cccc(Oc3ccc(Cl)cc3)n2)C(C)C)cc1 [Compound 552] | > 0.1 | 0.002 | 0.0016 | > 100 | – | > 0.01
26 | CC(C)C(=Nc1ccc(Cl)cc1)OCc1cccc(Oc2ccccc2)n1 [Compound 553] | 0.1 | 0.05 | < 0.1 | < 100 | – | > 0.01
27 | CC(C)C(=Nc1ccc(Cl)cc1)OCc1cccc(Oc2ccc(Cl)cc2)n1 [Compound 554] | 0.04 | 0.003 | 0.00075 | > 100 | – | > 0.01
28 | CC(C)C(=Nc1ccc(Cl)c(C(F)(F)F)c1)OCc1cccc(Oc2ccccc2)n1 [Compound 555] | > 0.1 | 0.0035 | 0.002 | < 100 | – | > 0.01
29 | CC(C)C(=Nc1ccc2c(c1)OC(F)(F)O2)OCc1cccc(Oc2ccccc2)n1 [Compound 556] | 0.04 | 0.0035 | 0.0007 | < 100 | – | > 0.01
30 | CC(C)C(=Nc1cccc(Br)c1)OCc1cccc(Oc2ccc(Cl)cc2)n1 [Compound 557] | > 0.1 | 0.0015 | 0.0004 | < 100 | – | > 0.01
31 | CC(C)C(=Nc1ccc(F)c(Br)c1)OCc1cccc(Oc2ccccc2)n1 [Compound 558] | > 0.1 | 0.0012 | 0.00045 | < 100 | – | > 0.01
32 | CC(C)C(=Nc1ccc(F)c(F)c1)OCc1cccc(Oc2ccc(Cl)cc2)n1 [Compound 559] | 0.017 | 0.0035 | 0.00027 | < 100 | – | > 0.01
33 | C=C(C)C(=Nc1ccc(C(F)(F)F)cc1)OCc1cccc(Oc2ccc(Cl)cc2)n1 [Compound 560] | < 0.1 | 0.0025 | 0.0015 | < 100 | – | > 0.01

— patent US5045566A, “Novel imidate insecticides” (ICI Americas Inc., priority 1989, dated 1991)
